Measurements published in patent US20250195521A1 (Revolution Medicines, Inc., priority 2020, published 2025).

What was measured:
KRAS G12S = KRAS G12S (Homo sapiens (Human), UniProt P01116+P62937, G12S); assay: Ras-Raf disruption/FRET/MOA assay (BRAF RBD, Cyclophilin A); type: biochemical; conditions: read-out: KRAS G12S FRET IC50
Summary of the method: (§1)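 His6-K-Ras-GMPPNP (12.5 nM), GST-BRAF RBD (50 nM) and tagless Cyclophilin A (25 μM) were combined in 25 mM HEPES pH 7.3 with 100 mM NaCl, 5 mM MgCl2, 0.1% BSA and 0.002% Tween20, with compound as a 10-point 3-fold series from 30 μM final, then incubated 3 h at 25° C.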

KRAS Q61H = KRAS Q61H (Homo sapiens (Human), UniProt P01116+P62937, Q61H); assay: as above; type: biochemical
Sequence of KRAS Q61H (P01116 other isoform, or with tags, fused parts or gaps Q61H): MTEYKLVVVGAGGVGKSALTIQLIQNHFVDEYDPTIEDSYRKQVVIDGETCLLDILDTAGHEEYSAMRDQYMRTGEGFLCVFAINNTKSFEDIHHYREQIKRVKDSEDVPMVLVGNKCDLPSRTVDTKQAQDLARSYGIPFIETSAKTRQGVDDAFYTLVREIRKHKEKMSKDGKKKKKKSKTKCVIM
Sequence of KRAS Q61H (P62937 whole entry): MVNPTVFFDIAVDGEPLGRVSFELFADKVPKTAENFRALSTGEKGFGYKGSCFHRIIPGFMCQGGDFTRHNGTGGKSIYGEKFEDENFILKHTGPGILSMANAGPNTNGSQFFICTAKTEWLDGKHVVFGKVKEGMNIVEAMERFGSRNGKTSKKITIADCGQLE
Summary of the method: as §1

KRAS G12V = KRAS G12V (Homo sapiens (Human), UniProt P01116+P62937, G12V); assay: as above; type: biochemical; conditions: read-out: KRAS G12V FRET IC50
Sequence of KRAS G12V (P01116 other isoform, or with tags, fused parts or gaps G12V): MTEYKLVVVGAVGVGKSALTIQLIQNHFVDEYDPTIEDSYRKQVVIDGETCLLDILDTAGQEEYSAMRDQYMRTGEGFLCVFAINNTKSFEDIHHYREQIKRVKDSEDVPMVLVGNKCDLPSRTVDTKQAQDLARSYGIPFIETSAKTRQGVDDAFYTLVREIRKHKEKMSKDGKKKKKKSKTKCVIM
Sequence of KRAS G12V (P62937 whole entry): as the sequence (P62937 whole entry) above
Summary of the method: as §1

KRAS G13D = KRAS G13D (Homo sapiens (Human), UniProt P01116+P62937, G13D); assay: as above; type: biochemical; conditions: read-out: KRAS G13D FRET data IC50
Sequence of KRAS G13D (P01116 other isoform, or with tags, fused parts or gaps G13D): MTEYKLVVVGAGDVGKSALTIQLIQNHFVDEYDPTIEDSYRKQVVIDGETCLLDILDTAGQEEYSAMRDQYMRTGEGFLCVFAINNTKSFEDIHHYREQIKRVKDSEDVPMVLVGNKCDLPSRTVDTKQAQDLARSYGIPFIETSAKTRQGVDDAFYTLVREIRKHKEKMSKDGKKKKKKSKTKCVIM
Sequence of KRAS G13D (P62937 whole entry): as the sequence (P62937 whole entry) above
Summary of the method: as §1

KRAS WT = KRAS WT (Homo sapiens (Human), UniProt P01116+P62937); assay: as above; type: biochemical; conditions: read-out: KRAS WT FRET data IC50
Sequence of KRAS WT (P01116 other isoform, or with tags, fused parts or gaps): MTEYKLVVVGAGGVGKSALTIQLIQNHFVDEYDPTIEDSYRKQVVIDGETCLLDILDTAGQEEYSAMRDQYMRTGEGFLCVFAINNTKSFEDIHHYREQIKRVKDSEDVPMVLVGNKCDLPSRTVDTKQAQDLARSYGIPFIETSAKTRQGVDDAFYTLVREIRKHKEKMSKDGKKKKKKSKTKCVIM
Sequence of KRAS WT (P62937 whole entry): as the sequence (P62937 whole entry) above
Summary of the method: as §1

NRAS Q61R = NRAS Q61R (Homo sapiens (Human), UniProt P01111+P62937, Q61R); assay: as above; type: biochemical
Sequence of NRAS Q61R (P01111 whole entry Q61R): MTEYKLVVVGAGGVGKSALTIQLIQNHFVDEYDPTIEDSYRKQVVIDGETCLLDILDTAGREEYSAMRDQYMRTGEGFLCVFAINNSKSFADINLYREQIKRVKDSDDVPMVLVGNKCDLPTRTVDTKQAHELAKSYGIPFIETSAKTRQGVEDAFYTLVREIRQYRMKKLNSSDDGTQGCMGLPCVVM
Sequence of NRAS Q61R (P62937 whole entry): as the sequence (P62937 whole entry) above
Summary of the method: (§2)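 First, 25 μM Cyclophilin A, 12.5 nM His6-Ras-GMPPNP and 50 nM GST-BRAF RBD are mixed with diluted compound at pH 7.3. Next, 3 h at 25° C. Then 10 nM anti-His Eu-W1024 plus 50 nM anti-GST allophycocyanin for 1.5 h before TR-FRET reading.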

NRAS Q61K = NRAS Q61K (Homo sapiens (Human), UniProt P01111+P62937, Q61K); assay: as above; type: biochemical
Sequence of NRAS Q61K (P01111 whole entry Q61K): as the sequence (P01111 whole entry Q61R) above, with R61K counted along it
Sequence of NRAS Q61K (P62937 whole entry): as the sequence (P62937 whole entry) above
Summary of the method: as §2

KRAS G12D = KRAS G12D (Homo sapiens (Human), UniProt P01116+P62937, G12D); assay: as above; type: biochemical; conditions: read-out: KRAS G12D FRET IC50
Sequence of KRAS G12D (P01116 other isoform, or with tags, fused parts or gaps G12D): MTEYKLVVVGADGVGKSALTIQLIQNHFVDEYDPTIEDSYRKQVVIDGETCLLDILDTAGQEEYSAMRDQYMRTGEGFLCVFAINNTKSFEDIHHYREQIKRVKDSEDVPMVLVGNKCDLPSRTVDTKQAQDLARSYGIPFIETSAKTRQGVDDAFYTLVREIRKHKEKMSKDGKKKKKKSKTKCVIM
Sequence of KRAS G12D (P62937 whole entry): as the sequence (P62937 whole entry) above
Summary of the method: as §1

KRAS G12C = KRAS G12C (Homo sapiens (Human), UniProt P01116+P62937, G12C); assay: as above; type: biochemical; conditions: read-out: KRAS G12C FRET IC50
Sequence of KRAS G12C (P01116-2 other isoform, or with tags, fused parts or gaps G12C): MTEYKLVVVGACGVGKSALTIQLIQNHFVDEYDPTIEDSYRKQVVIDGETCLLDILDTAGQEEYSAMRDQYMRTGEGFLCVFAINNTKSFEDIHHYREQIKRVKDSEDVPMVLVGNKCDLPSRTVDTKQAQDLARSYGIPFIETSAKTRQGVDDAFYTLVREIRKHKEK
Sequence of KRAS G12C (P62937 whole entry): as the sequence (P62937 whole entry) above
Summary of the method: as §1

KRAS G13C = KRAS G13C (Homo sapiens (Human), UniProt P01116+P62937, G13C); assay: as above; type: biochemical; conditions: read-out: KRAS G13C FRET IC50
Sequence of KRAS G13C (P01116 other isoform, or with tags, fused parts or gaps G13C): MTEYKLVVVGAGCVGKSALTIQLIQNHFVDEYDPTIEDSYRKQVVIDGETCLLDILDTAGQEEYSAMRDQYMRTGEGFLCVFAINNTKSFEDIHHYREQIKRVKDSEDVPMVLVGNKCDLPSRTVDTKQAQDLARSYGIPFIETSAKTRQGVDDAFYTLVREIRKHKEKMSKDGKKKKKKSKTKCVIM
Sequence of KRAS G13C (P62937 whole entry): as the sequence (P62937 whole entry) above
Summary of the method: as §1

NRAS G12C = NRAS G12C (Homo sapiens (Human), UniProt P01111+P62937, G12C); assay: as above; type: biochemical; conditions: read-out: NRAS G12C FRET data IC50
Sequence of NRAS G12C (P01111 whole entry G12C): as the sequence (P01111 whole entry Q61R) above, with G12C, R61Q counted along it
Sequence of NRAS G12C (P62937 whole entry): as the sequence (P62937 whole entry) above
Summary of the method: as §2

NRAS WT = NRAS WT (Homo sapiens (Human), UniProt P01111+P62937); assay: as above; type: biochemical
Sequence of NRAS WT (P01111 whole entry): as the sequence (P01111 whole entry Q61R) above, with R61Q counted along it
Sequence of NRAS WT (P62937 whole entry): as the sequence (P62937 whole entry) above
Summary of the method: as §2

[1] = tested on: NCI-H358 cells (K-Ras G12C); assay: CellTiter-Glo cell viability, NCI-H358; type: cell-based, human; conditions: Homo sapiens, NCI-H358, 120 h, K-Ras G12C, 5-day treatment; read-out: H358 Cell Viability IC50
Summary of the method: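 Cells seeded, compound dispensed straight into wells, 5-day exposure. Plates brought to room temperature ~30 min, CellTiter-Glo luminescence measured. Normalized to DMSO (%), 4-parameter logistic fit.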

Sequence of KRAS G12S (P01116 other isoform, or with tags, fused parts or gaps G12S): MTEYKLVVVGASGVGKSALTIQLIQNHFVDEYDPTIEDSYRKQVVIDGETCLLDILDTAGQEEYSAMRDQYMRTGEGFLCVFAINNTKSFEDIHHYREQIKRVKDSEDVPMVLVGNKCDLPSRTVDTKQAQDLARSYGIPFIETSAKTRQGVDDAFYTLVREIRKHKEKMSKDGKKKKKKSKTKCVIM
Sequence of KRAS G12S (P62937 whole entry): as the sequence (P62937 whole entry) above

IC50 (KRAS G12S) [nM] | IC50 (KRAS Q61H) [nM] | IC50 (KRAS G12V) [nM] | IC50 (KRAS G13D) [nM] | IC50 (KRAS WT) [nM] | IC50 (NRAS Q61R) [nM] | IC50 (NRAS Q61K) [nM] | IC50 (KRAS G12D) [nM] | IC50 (KRAS G12C) [nM] | IC50 (KRAS G13C) [nM] | IC50 (NRAS G12C) [nM] | IC50 (NRAS WT) [nM] | IC50 [1] [nM] | SMILES
1000 to 10000 | 100 to 1000 | 1000 to 10000 | 1000 to 10000 | 1000 to 10000 | 1000 to 10000 | 100 to 1000 | 1000 to 10000 | 100 to 1000 | 100 to 1000 | 100 to 1000 | 1000 to 10000 | 100 to 1000 | CCn1c(-c2cccnc2[C@H](C)OC)c2c3cc(ccc31)-c1csc(n1)C[C@H](NC(=O)[C@H](C(C)C)N1C[C@@H](c3ccccc3)CC1=O)C(=O)N1CCC[C@H](N1)C(=O)OCC(C)(C)C2 (single isomer, unassigned) [Compound A544]
1000 to 10000 | 100 to 1000 | 1000 to 10000 | 1000 to 10000 | 1000 to 10000 | 1000 to 10000 | 1000 to 10000 | > 10000 | 1000 to 10000 | 1000 to 10000 | 1000 to 10000 | 1000 to 10000 | 1000 to 10000 | CCn1c(-c2cccnc2[C@H](C)OC)c2c3cc(ccc31)-c1cccc(c1)C[C@H](NC(=O)[C@H](C(C)C)N(C)C(C)=O)C(=O)N1CCC[C@H](N1)C(=O)OCC(C)(C)C2 [Compound A61]
1000 to 10000 | 100 to 1000 | 1000 to 10000 | 1000 to 10000 | 1000 to 10000 | – | 1000 to 10000 | > 10000 | 1000 to 10000 | 100 to 1000 | 1000 to 10000 | 1000 to 10000 | – | CCn1c(-c2cccnc2[C@H](C)OC)c2c3cc(ccc31)-c1cc(O)cc(c1)C[C@H](NC(=O)C1CCC3C1C3(F)F)C(=O)N1CCC[C@H](N1)C(=O)OCC(C)(C)C2 (stereo partly shown) [Compound A181]
1000 to 10000 | 100 to 1000 | 1000 to 10000 | 1000 to 10000 | 1000 to 10000 | 1000 to 10000 | 1000 to 10000 | > 10000 | 100 to 1000 | 100 to 1000 | 1000 to 10000 | 1000 to 10000 | – | CCn1c(-c2cccnc2[C@H](C)OC)c2c3cc(ccc31)-c1cc(O)cc(c1)C[C@H](NC(=O)[C@@H]1[C@H]3C[C@H]3CN1C(C)=O)C(=O)N1CCC[C@H](N1)C(=O)OCC(C)(C)C2 [Compound A207]
100 to 1000 | 10 to 100 | 100 to 1000 | 100 to 1000 | 100 to 1000 | 1000 to 10000 | 100 to 1000 | 1000 to 10000 | 100 to 1000 | 10 to 100 | 100 to 1000 | 100 to 1000 | – | CCn1c(-c2cccnc2[C@H](C)OC)c2c3cc(ccc31)-c1cc(O)cc(c1)C[C@H](NC(=O)[C@@H]1[C@@H](C)CCCN1C(C)=O)C(=O)N1CCC[C@H](N1)C(=O)OCC(C)(C)C2 [Compound A324]
100 to 1000 | 100 to 1000 | 100 to 1000 | 100 to 1000 | 100 to 1000 | 100 to 1000 | 100 to 1000 | 1000 to 10000 | 100 to 1000 | 100 to 1000 | 100 to 1000 | 100 to 1000 | 100 to 1000 | CCn1c(-c2cccnc2[C@H](C)OC)c2c3cc(ccc31)-c1csc(n1)C[C@H](NC(=O)C1(F)CCC1)C(=O)N1CCC[C@H](N1)C(=O)OCC(C)(C)C2 [Compound A361]

SMILES | IC50 (KRAS G12S) [nM] | IC50 (KRAS Q61H) [nM] | IC50 (KRAS G12V) [nM] | IC50 (KRAS G13D) [nM] | IC50 (KRAS WT) [nM] | IC50 (NRAS Q61R) [nM] | IC50 (NRAS Q61K) [nM] | IC50 (KRAS G12D) [nM] | IC50 (KRAS G12C) [nM] | IC50 (KRAS G13C) [nM] | IC50 (NRAS G12C) [nM] | IC50 (NRAS WT) [nM] | IC50 [1] [nM]
CCn1c(-c2cccnc2[C@H](C)OC)c2c3cc(ccc31)-c1csc(n1)C[C@H](NC(=O)[C@H](C(C)C)N(C)C(=O)[C@H]1CCN(S(C)(=O)=O)C1)C(=O)N1CCC[C@H](N1)C(=O)OCC(C)(C)C2 [Compound A237] | 1000 to 10000 | – | 1000 to 10000 | > 10000 | 1000 to 10000 | 1000 to 10000 | 1000 to 10000 | > 10000 | 1000 to 10000 | 1000 to 10000 | 1000 to 10000 | 1000 to 10000 | –
